Assay results as given in article PMC11511194, “Key Factors for Improving Predictive Accuracy and Avoiding Overparameterization of the PBPK Absorption Model in Food Effect Studies of Weakly Basic Water-Insoluble Compounds in Immediate Release Formulations” (Pharmaceutics, 2024).
In brackets after ≈: the same amount, converted by molar mass. Read-outs that look alike come from different tables or passages of the source.

Columns and labels:
[1] = set-up: method as in earlier work; details: optimized rivaroxaban model input, cited from earlier work
CYP3A4 = CYP3A4 intrinsic clearance fitted in PBPK model; details: Fitted to clinical PK profiles
Source text: (§1) S2. PBPK model development and validation physicochemical parameters for these three model drugs, including protein binding and Blood-to-Plasma (B/P) ratio, were obtained from experimental results, while log P and pKa were estimated based on the molecular formula using Gastro Plus ADMET software (version 10.3, […]
(§2) S2.1. Rivaroxaban PBPK model development and validation
S2.1.1. Rivaroxaban PBPK model development for metabolism and elimination module Given that the metabolic fractions of CYP3A4 and CYP2J2 to the systemic clearance of rivaroxaban were approximately 18% and 14% [1], respectively, and liver hydrolases contributed to about 14% of its systemic clearance, CLint_CYP3A4, CLint_CYP2J2 and CLHLM were fitted according to the metabolic fraction of rivaroxaban in vivo and concentration-time profiles from the SAD clinical trial in Caucasian subjects under fasted state. Considering that rivaroxaban was a substrate of P-gp transporter, and that about 36% and 7% of the parent drug were directly excreted by the kidney and liver, respectively, rivaroxaban may undergo active efflux through the kidney and liver in vivo [2]. Consequently, permeability-limited kidney and liver models were employed to account for the active efflux mechanism of P-gp for rivaroxaban. These models include both passive diffusion and active transport.
Clearances for passive diffusion in the kidney and liver was calculated using Equation S1 [5] and Equation S2 [6], respectively.
CL௉஽,௜ =2×P௔௣௣ × TSA௜ ሺS1ሻ where CLPD,i is the passive diffusion clearance of the drug in compartment i, Papp is the apparent permeability of the drug, and the TSAi is the regional tubular surface area of compartment i.
Log CL௉஽ =0.82×logD଻.ସ +0.5 ሺS2ሻ where CLPD is the passive diffusional clearance of APIs in the liver, and log D 7.4 is the oil-water partition coefficient at pH 7.4 [6] […]
Blood-to-plasma partition ratio 0.714 Measured
Fraction unbound in plasma 0.065 Measured […]
Caco-2(10-6cm/s) (Rivaroxaban) 8.103 Measured […]

CYP2J2 = CYP2J2 intrinsic clearance fitted in PBPK model; details: Fitted to in vivo metabolic fraction and SAD C-T profiles
Source text: as §1, §2
(§3) S2.1.1. Rivaroxaban PBPK model development for metabolism and elimination module […]
(§4) its systemic clearance, CLint_CYP3A4, CLint_CYP2J2 and CLHLM were fitted according to the metabolic fraction of rivaroxaban in vivo and concentration-time profiles from the SAD clinical trial in Caucasian subjects under fasted state. […]
(§5) permeability-limited kidney and liver models were employed to account for the active efflux […]
(§6) Physicochemical properties

[2] = Equilibrium solubility of APIs in aqueous and biorelevant media; assay type: physicochemical; details: 37 °C
Method: To evaluate the effect of pH and bile salt concentration within the physiological range on the solubility of APIs, the equilibrium solubility of APIs in various aqueous and biorelevant media was comprehensively investigated. Specifically, aqueous buffers, including pH 1.0 and pH 2.0 HCl solutions; pH 3.0 and pH 4.5 acetum; and pH 5.0, pH 6.5, and pH 8.0 phosphate buffer solutions (PBS), were prepared according to the guidelines outlined in the Chinese Pharmacopoeia. Additionally, biorelevant media such as FaSSGF, FaSSIF, and FeSSIF were prepared following the prescribed method for biorelevant power. An excess amount of solid drug powder was added to vials containing 20 mL of the corresponding medium, and tests were conducted with continuous stirring at 37 °C for 24 h. Drug concentration was detected every minute through an in situ fiber-optic UV dissolution real-time monitoring system (Pion Scientific Instruments, Billerica, MA, USA). All measurements were performed in triplicate.

[3] = Passive diffusion clearance and unbound fractions of permeability-limited kidney and liver models; details: Liver, Fitted
Source text: as §1, §2, §3, §4, §5, §6

Caco-2 = details: Apical pH : Basolateral pH 7.4 : 7.4, Passive&Active, cited from earlier work
[4] = in vivo, cited from earlier work
ABCB1 (P-gp/MDR1) = test: P-gp efflux clearance in kidney and liver fitted in PBPK model; details: human, permeability-limited liver model, Canalicular, read-out: CLint,T
Source text: as §1, §2, §3, §4, §5, §6

[5] = ticagrelor; supplement ref 17; cited from earlier work
[6] = Apparent permeability assay in biorelevant media (PAMPA); assay type: in vitro ADME; details: for PAMPA: optimized ticagrelor model input; for Papp: PAMPA, parallel artificial membrane
Method: In light of observed distinctions in the apparent permeability of drugs in biorelevant media compared to standard media, the apparent permeability of ticagrelor in FaSSIF and FeSSIF media was measured using the published method with the parallel artificial membrane. The apparent permeability of rivaroxaban and PB-201 (Drug-A) in biorelevant media was referenced from the published results.

[7] = HCl solution, simulated gastric fluid, thermodynamic from solid, pH 1.0 HCl
[8] = HCl solution, simulated gastric fluid, thermodynamic from solid, pH 2.0 HCl
[9] = aqueous buffer, thermodynamic from solid, pH 3.0 Acetic acid buffer
[10] = aqueous buffer, thermodynamic from solid, pH 4.5 Acetic acid buffer
[11] = phosphate buffer solution (PBS), aqueous buffer, thermodynamic from solid, pH 5.0 PBS
[12] = phosphate buffer solution (PBS), pH 6.5 PBS
[13] = phosphate buffer solution (PBS), pH 8.0 PBS
[14] = thermodynamic from solid, pH 5.0 FeSSIF
[15] = thermodynamic from solid, pH 6.5 FaSSIF

Structure (SMILES)	Intrinsic clearance of CYP 3A4 (CYP3A4) [µL/min/pmol]	solubility thermodynamic at 24 h [2, 7] [µg/mL]	solubility thermodynamic at 24 h [2, 8] [µg/mL]	solubility thermodynamic at 24 h [2, 9] [µg/mL]	solubility thermodynamic at 24 h [2, 10] [µg/mL]	solubility thermodynamic at 24 h ([2]; pH 1.6 FaSSGF) [µg/mL]	solubility thermodynamic at 24 h [2, 11] [µg/mL]	solubility thermodynamic at 24 h [2, 12] [µg/mL]	solubility thermodynamic at 24 h [2, 13] [µg/mL]	solubility thermodynamic at 24 h [2, 14] [µg/mL]	solubility thermodynamic at 24 h [2, 15] [µg/mL]	other results
O=C(NC[C@H]1CN(c2ccc(N3CCOCC3=O)cc2)C(=O)O1)c1ccc(Cl)s1 [Rivaroxaban]	0.027	6.84 (≈ 15.7 µM)	8.18 (≈ 18.8 µM)	10.6 (≈ 24.3 µM)	6.55 (≈ 15 µM)	7.5 (≈ 17.2 µM)	4.85 (≈ 11.1 µM)	5.84 (≈ 13.4 µM)	5.87 (≈ 13.5 µM)	10.6 (≈ 24.3 µM)	6.17 (≈ 14.2 µM)	PAMPA ([1]; Fasted (FaSSIF)): 52.6 10E-06 cm/s; PAMPA ([1]; Fed (FeSSIF)): 40.80 10E-06 cm/s; Intrinsic clearance of CYP 2J2 (CYP2J2): 2.500 µL/min/pmol; fuIW [3]: 0.193; Caco-2 permeability (Caco-2; supplement ref 4): 8.103 10-6cm/s; metabolic fraction of CYP2J2 to the systemic clearance ([4]; supplement ref 1): about 14%; metabolic fraction of CYP3A4 to the systemic clearance ([4]; supplement ref 1): approximately 18%; parent drug directly excreted by the kidney ([4]; supplement ref 1): about 36%; parent drug directly excreted by the liver ([4]; supplement ref 1): ~7%; contribution of liver hydrolases to systemic clearance ([4]; supplement ref 2): about 14%; hepatocyte CLint (ABCB1 (P-gp/MDR1)): 0.03 µL/min/1e6 cells
CCCSc1nc(N[C@@H]2C[C@H]2c2ccc(F)c(F)c2)c2nnn([C@@H]3C[C@H](OCCO)[C@@H](O)[C@H]3O)c2n1 [Ticagrelor]	5.00	18 (≈ 34.4 µM)	8.04 (≈ 15.4 µM)	11.6 (≈ 22.2 µM)	7.47 (≈ 14.3 µM)	14.2 (≈ 27.2 µM)	6.35 (≈ 12.2 µM)	5.97 (≈ 11.4 µM)	5.52 (≈ 10.6 µM)	4050 (≈ 7750 µM)	306 (≈ 586 µM)	CLR typical renal clearance [5]: 0.00584 L/h; Caco-2 permeability (Caco-2; supplement ref 19): 6.0 10-6cm/s; PAMPA ([6]; Fasted (FaSSIF)): 90.2 10E-06 cm/s; PAMPA ([6]; Fed (FeSSIF)): 14.30 10E-06 cm/s; Papp ([6]; FaSSIF): 90.2 ×10⁻⁶ cm/s; Papp ([6]; FeSSIF): 14.3 ×10⁻⁶ cm/s
